In ChEMBL document CHEMBL3351773, “Effect of p-aminophenols on tyrosinase activity” (Bioorg Med Chem, 2014):
The source made the active and inactive calls. No cut-off for these calls is given here.

What was measured:
[1] = target: T1, Tyrosinase (Agaricus bisporus) (UniProt O42713); assay: Inhibition of mushroom tyrosinase using L-tyrosine as substrate at 100 uM by spectrophotometry relative to control
T1 sequence (whole entry): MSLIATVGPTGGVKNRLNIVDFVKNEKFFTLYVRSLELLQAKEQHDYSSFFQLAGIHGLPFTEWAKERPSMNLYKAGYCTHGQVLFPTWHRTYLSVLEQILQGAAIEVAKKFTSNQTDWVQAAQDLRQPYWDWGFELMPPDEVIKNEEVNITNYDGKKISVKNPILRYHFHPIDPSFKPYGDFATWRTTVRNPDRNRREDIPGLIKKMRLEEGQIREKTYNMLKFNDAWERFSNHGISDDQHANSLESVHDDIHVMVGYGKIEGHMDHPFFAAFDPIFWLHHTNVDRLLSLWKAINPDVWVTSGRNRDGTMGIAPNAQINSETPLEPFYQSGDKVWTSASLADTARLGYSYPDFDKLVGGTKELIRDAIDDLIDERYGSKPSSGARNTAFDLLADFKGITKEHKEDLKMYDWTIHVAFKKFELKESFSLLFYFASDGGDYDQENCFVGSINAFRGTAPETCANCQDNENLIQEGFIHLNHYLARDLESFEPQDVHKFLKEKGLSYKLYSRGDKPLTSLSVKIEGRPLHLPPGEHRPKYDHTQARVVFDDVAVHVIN

[2] = target: T1, Tyrosinase (Agaricus bisporus); assay: Inhibition of mushroom tyrosinase using L-tyrosine as substrate at 200 uM by spectrophotometry relative to control
[3] = target: T1, Tyrosinase (Agaricus bisporus); assay: (§1) Inhibition of mushroom tyrosinase using L-tyrosine as substrate by spectrophotometry
Tyrosinase [4] = target: T2, Tyrosinase (Agaricus bisporus, UniProt O42713); assay: as §1
T2 sequence (O42713 whole entry): T1 sequence (whole entry)

[5] = target: T1, Tyrosinase (Agaricus bisporus); assay: Inhibition of mushroom tyrosinase using L-DOPA as substrate at 100 uM by spectrophotometry relative to control
[6] = target: T1, Tyrosinase (Agaricus bisporus); assay: Inhibition of mushroom tyrosinase using L-DOPA as substrate at 200 uM by spectrophotometry relative to control
[7] = target: T1, Tyrosinase (Agaricus bisporus); assay: (§2) Inhibition of mushroom tyrosinase using L-DOPA as substrate by spectrophotometry relative to control
Tyrosinase [8] = target: T2, Tyrosinase; assay: as §2
[9] = target: T1, Tyrosinase (Agaricus bisporus); assay: Non-competitive inhibition of mushroom tyrosinase using L-tyrosine as substrate by Lineweaver-Burk double reciprocal plot method
[10] = target: T1, Tyrosinase (Agaricus bisporus); assay: Non-competitive inhibition of mushroom tyrosinase using L-DOPA as substrate by Lineweaver-Burk double reciprocal plot method

Structure (SMILES)	inhibition [1]	inhibition [2]	inhibition [3]	IC50 (Tyrosinase [4])	inhibition [5]	inhibition [6]	inhibition [7]	IC50 (Tyrosinase [8])	inhibition [9]	inhibition [10]
CCCCCCCCCCCCNc1ccc(O)cc1	23%	27%	Dose-dependent effect	> 200 µM	25%	45%	Dose-dependent effect	> 200 µM	Active	Active
CCCCCCCCCCNc1ccc(O)cc1	–	–	Dose-dependent effect	5.7 µM	–	–	Dose-dependent effect	30.1 µM	Active	Active
